Assay results as given in patent US20220047617A1, “Nucleic acid nanocarrier drug, preparation method, pharmaceutical composition and use thereof” (BAI YAO ZHI DA (BEIJING) NANOBIO TECHNOLOGY CO., LTD., priority 2018, published 2022).
Where a chain is given by its changes, count along the chain named. Like-named read-outs stand apart in the source and are kept apart here. {Biotin} = biotin label attached at strand end

Key:
MCF-7 cells [1] = test: Cytotoxicity in MCF-7 cells (CellTiter 96 AQueous One Solution), Embodiment 33; assay type: cell-based, human; conditions: MCF-7, 96 hours
Experimental: Cytotoxicity of DNAh-Biotin-EGFRapt-Cy5-Mit Nanoparticles in MCF-7 Cells
(§1) 1) Harvesting cells in a logarithmic growth phase, taking a small amount and staining with trypan blue for counting to ensure that the cell viability reaches more than 98%;
(§2) 2) adjusting the cell density to 2.22×10^4/mL with a growth medium;
(§3) 3) planting 90 μL/well of cell suspension into the 96-well plate, herein the number of cells per well in the plate is 2000;
(§4) 4) placing the planted cell plate in the incubator at 37 DEG C. and incubating overnight;
(§5) 5) performing 3.16-fold gradient dilution on the compound at 9 concentration points;
6) taking out the cell culture plate, and adding 10 μL/well of 10× concentration drug working solution to the corresponding wells of the cell culture plate, herein three replicate holes are made for each concentration, and the final drug action concentration is shown in Table 144 below;
7) placing the cell culture plate in the incubator and continuously incubating for 96 hours […]
(§6) 11) using a microplate reader to read a OD490 value of each well in the cell plate; and […]
(§7) GraphPad Prism 5.0 software is used to process data graphically. […] A calculation formula of the survival rate is as follows, the IC50 may be automatically calculated in GraphPad Prism 5.0. […]

MV4-11 cells [2] = test: Cytotoxicity in MV4-11 cells (CellTiter 96 AQueous One Solution), Embodiment 25; assay type: cell-based; conditions: MV4-11, 96 hours
Experimental: as §1
(§8) 2) adjusting the cell density to 1.11×10^5/mL with a growth medium;
(§9) 3) planting 90 μL/well of cell suspension into the 96-well plate, herein the number of cells per well in the plate is 10000;
as §4, §5
6) taking out the cell culture plate, and adding 10 μL/well of 10× concentration drug working solution to the corresponding wells of the cell culture plate, herein three replicate holes are made for each concentration, and the final drug action concentration is shown in Table 124 below;
(§10) 7) placing the cell culture plate in the incubator and continuously incubating for 96 hours; […]
as §6, §7

HCT116 cells = test: Cytotoxicity in HCT116 cells (CellTiter-Glo), Embodiment 29; assay type: cell-based
Experimental: Cytotoxicity Research of RNAh-Bio-670-Docetaxel Nanoparticles in HCT116 Cells
1) Cell Culturing and Plating
HCT116 cells are cultured at 37 DEG C. and 5% CO2 in the DMEM basal medium in which 10% FBS and 1% PS are respectively added. The cell density used in the experiment is above 80%. The cells are collected, and centrifuged at 1000 rpm for 4 minutes, the medium is resuspended, the cell concentration is adjusted, and it is added to the 96-well plate in a volume of 5000 cells per 90 μL, and each group has 4 replicate wells.
2) Gradient drug concentration preparation and administration
After 24 hours, the compound solution is transferred to each well, 200 nM of each sample per well, and 4 replication wells.
Medium (untreated) control: only cells without compound treatment
Blank control: without cells, used for instrument zero calibration
3) Cell Culture after Administration
4) Cells Treated by Detection Kit
The well plate is brought to a room temperature in advance and stands for 30 minutes. 100 μL of a CellTiter-Glo® reagent is added to each well of the well plate and mixed for 2 minutes on a shaker to promote cell lysis. The Perkin Elmer Envision 2104 Multilabel Reader is used to read values and the values are recorded. […]
The acquired experiment data is analyzed and processed by using excel software, and GraphPad Prism 5 software is used for curve fitting analysis.

SKOV3 cells = test: Cytotoxicity in SKOV3 cells (CellTiter 96 AQueous One Solution), Embodiment 30; assay type: cell-based; conditions: Homo sapiens, SK-OV-3, SKOV3, 96 hours
Experimental: as §1, §2, §3, §4, §5
(§11) 6) taking out the cell culture plate, and adding 10 μL/well of 10× concentration drug working solution to the corresponding wells of the cell culture plate, herein three replicate holes are made for each concentration, and the final drug action concentration is shown in Table 134 below;
as §10, §6, §7

MCF-7 cells [3] = test: Cytotoxicity in MCF-7 cells (CellTiter 96 AQueous One Solution), Embodiment 30; assay type: cell-based; conditions: Homo sapiens, MCF7, MCF-7, 96 hours
Experimental: as §1, §2, §3, §4, §5, §11, §10, §6, §7

MCF-7 cells [4] = test: Cytotoxicity in MCF-7 cells (CellTiter 96 AQueous One Solution), Embodiment 37; assay type: cell-based, human
Experimental: Cytotoxicity of DNAh-Biotin-EGFRapt-Cy5-Idarubicin Nanoparticles in MCF-7 and MV4-11 Cells
as §1, §2, §3, §4, §5
6) taking out the cell culture plate, and adding 10 μL/well of 10× concentration drug working solution to the corresponding wells of the cell culture plate, herein three replicate holes are made for each concentration, and the final drug action concentration is shown in Table 154 below;
as §10, §6, §7

MV4-11 cells [5] = test: Cytotoxicity in MV4-11 cells (CellTiter 96 AQueous One Solution), Embodiment 37; assay type: cell-based
Experimental: 9) adding 20 μL/well of the CellTiter 96® AQueous One Solution reagent to the cell culture plate; […]

RPMI 8226 cells = test: Cytotoxicity in RPMI 8226 cells (CellTiter 96 AQueous One Solution), Embodiment 21; assay type: cell-based; conditions: Homo sapiens, RPMI 8226, 96 hours
Experimental: as §1, §8, §9, §4, §5
7) placing the cell culture plate in the incubator and continuously incubating for 96 hours;
8) placing the CellTiter 96® AQueous One Solution reagent at the room temperature and thawing for 90 minutes or thawing in a water bath at 37 DEG C., and placing at the room temperature and equilibrating for 30 minutes;
9) adding 20 μL/well of the CellTiter 96® AQueous One Solution reagent to the cell culture plate;
10) placing the cell culture plate in the incubator at 37 DEG C. and continuously incubating for 3 hours;
11) using a microplate reader to read a OD490 value of each well in the cell plate; and
12) data processing and analysis.
as §7

[6] = TM value detection by solubility curve method (SYBR Green I); assay type: physicochemical; conditions: extension fragment deformation+core short-sequence RNA nanoparticles; temperature at ½ RFUmax in 20 to 90 DEG C. taken as Tm
Experimental: A solubility curve method is used to detect TM values of the 7 groups of the extension fragment deformation+core short-sequence RNA nanoparticles, and the samples are consistent with the potential samples.
(1) After the sample is diluted with ultrapure water, 5 μg of the diluted sample is mixed with 2 μL of SYBR Green I dye (diluted by 1:200), a final volume is 20 μL, and the dilution concentration is as follows:
(2) It is incubated for 30 min in the dark at a room temperature; and
(3) On-machine detection is performed, a program is set to start at 20 DEG C., the temperature rises per second from 0.1 DEG C. to 95 DEG C., and reading is performed every 5 s.
Due to the particularity of the RNA samples, a temperature corresponding to ½ RFUmax in a range of 20 to 90 DEG C. is used as a sample Tm value in this test.
A solubility curve method is used to detect TM values of the 7 groups of the extension fragment deformation+core short-sequence DNA nanoparticles, and the samples are consistent with the potential samples.

[7] = compared with DNAh targeted fluorescent carrier

**Q.** For O=C1c2c(O)ccc(O)c2C(=O)c2c(NCCNCCO)ccc(NCCNCCO)c21 [Mit (mitoxantrone)], which IC50 (MCF-7 cells [1]) is on record?
**A.** 538 nM

**Q.** Which IC50 (MV4-11 cells [2]; Homo sapiens) does the source give for Nc1ccn([C@@H]2O[C@H](CO)[C@@H](O)[C@@H]2O)c(=O)n1 [cytarabine] here?
**A.** 1250 nM

**Q.** And the “toxicity to the MV4-11 cells (in words)” value (MV4-11 cells [2]; [7])?
**A.** toxic

**Q.** What does the source list for CC(=O)O[C@@]12CO[C@@H]1C[C@H](O)[C@@]1(C)C(=O)[C@H](O)C3=C(C)[C@@H](OC(=O)[C@H](O)[C@@H](NC(=O)OC(C)(C)C)c4ccccc4)C[C@@](O)([C@@H](OC(=O)c4ccccc4)[C@H]21)C3(C)C [docetaxel]?
**A.** cell survival rate (HCT116 cells; HCT116, treatment time 72 h, drug concentration 200 nM): 10.68%; inhibition at 0.2 µM (HCT116 cells; Homo sapiens, HCT-116, HCT116, drug concentration 200 nM, 72 hours, read-out: cell inhibition rates): 50.5%; IC50 (SKOV3 cells; read-out: IC50): < 1 nM; IC50 (SKOV3 cells; read-out: IC50 acting on the SKOV3 cells): < 1 nM; IC50 (MCF-7 cells [3]; read-out: IC50): < 1 nM; IC50 (MCF-7 cells [3]; read-out: IC50 acting on the MCF-7 cells): < 1 nM

**Q.** Which IC50 (MCF-7 cells [4]; Homo sapiens, MCF7, MCF-7 cell line, 96 hours incubation, CellTiter 96 AQueous One Solution, OD490) does the source give for CC(=O)[C@]1(O)Cc2c(O)c3c(c(O)c2[C@@H](O[C@H]2C[C@H](N)[C@H](O)[C@H](C)O2)C1)C(=O)c1ccccc1C3=O [idarubicin] here?
**A.** 72.5 nM

**Q.** And the “toxicity to the MCF-7 cells (in words)” value (MCF-7 cells [4]; MCF-7, 96 hours, compared with DNAh targeted fluorescent carrier)?
**A.** toxic

**Q.** What about the IC50 (MV4-11 cells [5]; Homo sapiens, MV4-11 cell line, 96 hours incubation, CellTiter 96 AQueous One Solution, OD490) of the same molecule?
**A.** < 1 nM

**Q.** And the “toxicity to the MV4-11 cells (in words)” value (MV4-11 cells [5]; MV4-11, 96 hours, compared with DNAh targeted fluorescent carrier)?
**A.** toxic

**Q.** What does the source list for Nc1cccc2c1CN(C1CCC(=O)NC1=O)C2=O (stereo not shown) [lenalidomide, 3-(7-amino-3-oxo-1H-isoindol-2-yl) piperidine-2,6-dione]?
**A.** IC50 (RPMI 8226 cells; read-out: IC50): 72.3 µM; IC50 (RPMI 8226 cells; read-out: IC50 acting on the RPMI 8226 cells): 72.3 µM

**Q.** For O=C1c2c(O)ccc(O)c2C(=O)c2c(NCCNCCO)ccc(NCCNCCO)c21 [mitoxantrone], which “toxicity to the MCF-7 cells (in words)” value (MCF-7 cells [1]; [7]) is on record?
**A.** toxic

B1: R-21: extension fragment deformation+core short-sequence RNA nanoparticles, strands SEQ ID NO: 138-140, a-strand 3′-biotin, 2′F (nucleic acid)
chain 1: GCGGCGAGCGGCGACGAGCGUUGCGGCCGGAGGCCGG
chain 2: CCGGCCUCCGGCCGCUUCGGCGCCAGCCGCC
chain 3: GGCGGCAGGCGCCCAUAGCCGUCGCCGCUCGCCGC
modifications: RNA nanoparticle strands, 2'-fluoro modified, a-strand 3'-biotin, positions not given here
**Q.** With B1 as the molecule, how does the TM value [6] read?
**A.** 65.0 °C

B2: R-17: extension fragment deformation+core short-sequence RNA nanoparticles, strands SEQ ID NO: 126-128, a-strand 3′-biotin, 2′F (nucleic acid)
chain 1: B1 chain 1 with C15G, C24G
chain 2: B1 chain 2 with G14C, G20C
chain 3: B1 chain 3 with C12G, G21C
modifications: chain 1: 3' {Biotin}, sugars by position and backbone not given here; chain 2: sugars by position and backbone not given here; chain 3: sugars by position and backbone not given here; RNA nanoparticle, 2'-fluoro modified
**Q.** For B2, which TM value [6] is on record?
**A.** 55.2 °C

B3: R-19: extension fragment deformation+core short-sequence RNA nanoparticles, strands SEQ ID NO: 132-134, a-strand 3′-biotin, 2′F (nucleic acid)
chain 1: B1 chain 1 with C15G, G16C, G23C, C24G
chain 2: B1 chain 2 with G14C, C15G, G22C
chain 3: B1 chain 3 with C10G, C20G, G21C
modifications: RNA nanoparticle strands, 2'-fluoro modified, a-strand 3'-biotin, positions not given here
**Q.** For B3, which TM value [6] is on record?
**A.** 54.0 °C

B4: R-15: extension fragment deformation+core short-sequence RNA nanoparticles, strands SEQ ID NO: 120-122, a-strand 3′-biotin, 2′F (nucleic acid)
chain 1: B1 chain 1 with C15G, C24G
chain 2: B1 chain 2 with G14C, C21G
chain 3: B1 chain 3 with G11C, G21C
modifications: chain 1: 3' {Biotin}, sugars by position and backbone not given here; chain 2: sugars by position and backbone not given here; chain 3: sugars by position and backbone not given here; RNA nanoparticle, 2'-fluoro modified
**Q.** Which TM value [6] does the source give for B4 here?
**A.** 57.5 °C

B5: R-16: extension fragment deformation+core short-sequence RNA nanoparticles, strands SEQ ID NO: 123-125, a-strand 3′-biotin, 2′F (nucleic acid)
chain 1: B1 chain 1 with C15G, G16C, G23C, C24G
chain 2: B1 chain 2 with G14C, C15G, G20C
chain 3: B1 chain 3 with C12G, C20G, G21C
modifications: chain 1: 3' {Biotin}, sugars by position and backbone not given here; chain 2: sugars by position and backbone not given here; chain 3: sugars by position and backbone not given here; RNA nanoparticle, 2'-fluoro modified
**Q.** With B5 as the molecule, how does the TM value [6] read?
**A.** 53.8 °C

B6: R-18: extension fragment deformation+core short-sequence RNA nanoparticles, strands SEQ ID NO: 129-131, a-strand 3′-biotin, 2′F (nucleic acid)
chain 1: B1 chain 1 with C15G, G16C, G23C, C24G
chain 2: B1 chain 2 with G14C, C15G
chain 3: B1 chain 3 with C20G, G21C
modifications: chain 1: 3' {Biotin}, sugars by position and backbone not given here; chain 2: sugars by position and backbone not given here; chain 3: sugars by position and backbone not given here; RNA nanoparticle, 2'-fluoro modified
**Q.** With B6 as the molecule, how does the TM value [6] read?
**A.** 54.5 °C
